Test results from publication PMC8037586, “Synthesis and Enantioselective Pharmacokinetic/Pharmacodynamic Analysis of New CNS-Active Sulfamoylphenyl Carbamate Derivatives” (International Journal of Molecular Sciences, 2021).
Read-outs that look alike come from different tables or passages of the source.

What was measured:
[1] = target: T1, human carbonic anhydrase (CA) isoform II (Homo sapiens, UniProt P00918); experiment: Stopped-flow CO2 hydrase assay, CA II; assay type: biochemical; details: for Ki: means ± SEM of 3 different assays
[2] = target: T2, human carbonic anhydrase (CA) isoform I (Homo sapiens, UniProt P00915); experiment: Stopped-flow CO2 hydrase assay, CA I; assay type: biochemical; details: for Ki: means ± SEM of 3 different assays
T2 sequence (P00915 whole entry, canonical isoform): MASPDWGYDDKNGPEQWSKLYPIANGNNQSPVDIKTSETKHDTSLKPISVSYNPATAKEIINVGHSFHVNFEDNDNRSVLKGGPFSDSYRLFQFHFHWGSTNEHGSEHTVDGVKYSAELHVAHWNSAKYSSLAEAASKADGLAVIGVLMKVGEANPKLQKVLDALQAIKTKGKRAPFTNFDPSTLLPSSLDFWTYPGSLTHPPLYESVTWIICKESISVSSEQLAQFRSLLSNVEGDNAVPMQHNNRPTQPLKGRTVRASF

[3] = Minimal neurotoxicity (TD50) in rats; assay type: in vivo, rat; details: rat, in vivo, po; rats dosed p.o.; read-out: Neurotoxicity-TD50 [95% CI]
Text: (§1) Table 3 Quantitative anticonvulsant and minimal neurotoxicity data (ED50 and TD50 values) and protective indexes (PI) of […] (MBPC) and 3-methylpentyl(4-sulfamoylphenyl)carbamate (MSPC). in rats dosed p.o. or i.p. ^b. | column: Neurotoxicity-TD50 (mg/kg) [95% CI] ^a; Protective Index (PI = TD50/ED50)

rats [4] = experiment: Minimal neurotoxicity (TD50) in rats; assay type: in vivo, rat; details: rats dosed p.o.
Text: as §1

[5] = target: T3, human carbonic anhydrase (CA) isoform VII (Homo sapiens, UniProt P43166); experiment: Stopped-flow CO2 hydrase assay, CA VII; assay type: biochemical; details: for Ki: means ± SEM of 3 different assays
T3 sequence (P43166 whole entry, canonical isoform): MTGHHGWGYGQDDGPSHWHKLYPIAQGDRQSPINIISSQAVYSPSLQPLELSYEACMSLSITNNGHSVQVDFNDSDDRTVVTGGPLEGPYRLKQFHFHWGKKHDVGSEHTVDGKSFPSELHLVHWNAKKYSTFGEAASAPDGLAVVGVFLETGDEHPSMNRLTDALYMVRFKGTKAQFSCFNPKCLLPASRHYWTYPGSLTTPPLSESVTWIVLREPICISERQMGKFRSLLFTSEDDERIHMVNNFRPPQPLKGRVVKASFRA

[6] = Pharmacokinetics from plasma levels after i.p. administration to rats; assay type: in vivo, rat; details: i.p. 80 mg/kg; for CL/F / Cmax / MRT / Tmax / half-life / Vd/F / AUC(0-inf): male, Sprague Dawley, rat, ip; for Vd/F: read-out: Vss/F; for AUC(0-inf): plasma
Description: (§2) The pharmacokinetics (PK) of racemic-MBPC and its two individual enantiomers were studied following i.p. administration (80 mg/kg) to male Sprague Dawley rats weighing approximately 200–250 g, and their major PK parameters were estimated. The PK experiments were approved by the Ethical Committee of the Hebrew University’s Faculty of Medicine. The dose was administered to rats in multisol that is a mixture of propylene glycol, alcohol (EtOH), and water for injection at a ratio of 8:1:1. The study details were as described previously. Plasma and brain levels of racemic-MBPC and its individual enantiomers were monitored at 20, 40, 60, 90, 120, 160, 180, 200, 220, and 260 min after dosing. Two rats were sacrificed at each time point.
(§3) Plasma and brain concentrations of each compound were quantified by an HPLC assay. The HPLC analysis was performed on a system (2695 Separation Module; Waters, Milford, MA, USA) with a photodiode array UV detector (2996 PDA Detector; Waters, Milford, MA, USA) conditioned as follows: Kinetex, 5 u EVO C18 100 A, 1504.6-mm column (PhenomenexVR, Torrance, CA, USA). Linear gradients (5–95% acetonitrile content) with H2O (0.1% formic acid) and acetonitrile were used as the eluents with a flow rate of 1 mL/min at 20 °C. The compounds and the internal standard were detected at 250 nm. Plasma and brain concentrations of MBPC and its two individual enantiomers were quantified as previously described, [29].
(§4) The PK parameters of each compound were calculated by non-compartmental analysis based on statistical moment theory using the PK software Phoenix Winnonlin Tripos L.P. (Pharsight Co., Mountain View, CA, USA) as previously described.

[7] = Pharmacokinetics from brain levels after i.p. administration to rats; assay type: in vivo, rat; details: i.p. 80 mg/kg; for AUCinf / AUC(0-inf) / CL/F / Cmax / MRT / Tmax / half-life / Vd/F: brain levels; for AUCinf / AUC(0-inf): 80 mg/kg; for AUC(0-inf) / Kp / CL/F / Cmax / MRT / Tmax / half-life / Vd/F: male, Sprague Dawley, rat, ip; for Kp: AUCbrain/AUCplasma, read-out: Brain-to-plasma (AUCinf) ratio; for Vd/F: read-out: Vss/F
Description: as §2, §3, §4

[8] = system: rat maximal electroshock test (MES); experiment: Rat maximal electroshock (MES) anticonvulsant test; assay type: in vivo; details: po, rats dosed p.o., read-out: MES-ED50 [95% CI]
Description: The experiments with the MES model were conducted in male Sprague Dawley rats weighing 100–120 g (Charles River Laboratories, Wilmington, MA, USA) as previously described. Eight rats were tested per dose in the dose–response curve in order to determine the ED50 value of each compound. The experiments were approved by the Ethical Committee of the NIH-ETSP program where the anticonvulsant activity was tested.

[9] = target: T4, human carbonic anhydrase (CA) isoform IV (Homo sapiens, UniProt P22748); experiment: Stopped-flow CO2 hydrase assay, CA IV; assay type: biochemical; details: means ± SEM of 3 different assays
T4 sequence (P22748 19-312): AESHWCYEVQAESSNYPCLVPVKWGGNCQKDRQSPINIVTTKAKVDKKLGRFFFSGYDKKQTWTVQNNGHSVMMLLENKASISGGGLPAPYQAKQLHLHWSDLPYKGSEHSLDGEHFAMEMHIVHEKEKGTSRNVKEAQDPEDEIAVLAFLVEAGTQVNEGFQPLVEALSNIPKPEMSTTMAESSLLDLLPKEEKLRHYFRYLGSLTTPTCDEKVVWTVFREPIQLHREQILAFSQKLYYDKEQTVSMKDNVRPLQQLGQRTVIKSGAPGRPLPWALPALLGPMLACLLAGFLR

[10] = system: rat maximal electroshock test (MES); set-up: method as in PMID 28275953, PMID 31124389; details: cited from earlier work
[11] = target: T4, human carbonic anhydrase (CA) isoform IV; set-up: method as in PMID 28275953, PMID 31124389; details: previously reported data; cited from earlier work
[12] = target: T1, human carbonic anhydrase (CA) isoform II; set-up: method as in PMID 28275953, PMID 31124389; details: previously reported data; cited from earlier work
[13] = target: T3, human carbonic anhydrase (CA) isoform VII; set-up: method as in PMID 28275953, PMID 31124389; details: previously reported data; cited from earlier work
rats [14] = system: rats; set-up: method as in PMID 28275953, PMID 31124389; details: cited from earlier work
[15] = target: T2, human carbonic anhydrase (CA) isoform I; set-up: method as in PMID 28275953, PMID 31124389; details: previously reported data; cited from earlier work
[16] = Enantiostability: extraction from rat plasma and optical rotation measurement; assay type: in vitro ADME; details: extracted from rat plasma; specific optical rotation compared to initial value
Text: MBPC was not included in such a series. […] The slightly better BPR of (S)-MBPC may contribute to its better rat anticonvulsant ED50 value. MBPC’s BPR values were better than that of (S)-MSPC but lower than those of racemic- and (R)-MSPC [10]. While (R)-MSPC has lower plasma and brain exposure compared to (S)-MSPC, the two MBPC enantiomers had similar brain permeability, with a slightly better BPR value for (S)-MBPC.

In the case of `CCC(C)OC(=O)Nc1ccc(S(N)(=O)=O)cc1` (racemic) [Racemic-MBPC], the Ki [1] is reported as 20.2 ± 1.5 nM, the Ki [2] is reported as 97.1 ± 5.3 nM and the TD50 [3] is reported as greater than 500 mg/kg. For the same compound, the “Protective Index (PI = TD50/ED50)” value (rats [4]) was greater than 20, the Ki [5] was 121 ± 8 nM and the CL/F ([6]; plasma levels) was 41.7 mL/min/kg. It also gave a Cmax ([6]; plasma levels) of 15300 ng/mL, an MRT ([6]; plasma levels) of 1.7 h and a Tmax ([6]; plasma levels) of 0.33 h. It also gave a half-life ([6]; plasma levels) of 0.5 h, a Vd/F ([6]; plasma levels) of 4.3 L/kg and an AUC(0-inf) ([6]; 80 mg/kg, plasma levels) of 32000 ng·h/mL. It also gave an AUCinf [7] of 47800 ng·h/mL, an AUC(0-inf) ([7]; brain) of 48000 ng·h/mL and a Kp ([7]; brain/plasma) of 1.49. The CL/F [7] was 28.3 mL/min/kg, the Cmax [7] was 16500 ng/mL and the MRT [7] was 2 h. The Tmax [7] was 1.33 h, the half-life [7] was 0.7 h and the Vd/F [7] was 3.4 L/kg. The ED50 [8] was 25 mg/kg and the Ki [9] was 432 ± 28 nM.

In the case of `CCC(C)CCOC(=O)Nc1ccc(S(N)(=O)=O)cc1` (racemic) [Racemic-MSPC, 3-methylpentyl(4-sulfamoylphenyl)carbamate], the “MES-ED50 [95% CI]” value ([10]; rats dosed i.p.) is given as 13 [8–22] mg/kg, the “MES-ED50 [95% CI]” value ([10]; rats dosed p.o.) is given as 28 [18–35] mg/kg and the Ki [11] is given as 750 ± 42 nM. For the same compound, the Ki [12] was 7.6 ± 0.5 nM, the Ki [13] was 351 ± 26 nM and the “Neurotoxicity-TD50 [95% CI]” value (rats [14]; rats dosed i.p.) was greater than 250 mg/kg. The “Protective Index (PI = TD50/ED50)” value (rats [14]; rats dosed i.p.) was greater than 19, the “Neurotoxicity-TD50 [95% CI]” value (rats [14]; rats dosed p.o.) was greater than 500 mg/kg and the “Protective Index (PI = TD50/ED50)” value (rats [14]; rats dosed p.o.) was greater than 18. For the same compound, the Ki [15] was 77 ± 4.7 nM.

With `CC[C@@H](C)OC(=O)Nc1ccc(S(N)(=O)=O)cc1` [(R)-MBPC] the Ki [1] was 7.1 ± 0.4 nM, the “effectiveness relative to its (S)-enantiomer against hCA II” value ([1]; ratio of KI values) was “five times more effective” and the “enantiostability (chiral inversion)” value [16] was “no chiral inversion was observed”. The Ki [2] was 203 ± 13 nM, the TD50 [3] was greater than 500 mg/kg and the “Protective Index (PI = TD50/ED50)” value (rats [4]) was greater than 13. For the same compound, the Ki [5] was 197 ± 14 nM, the “higher clearance than its enantiomer” value ([6]; (R)- vs (S)-enantiomer) was 65% and the CL/F ([6]; plasma levels) was 55 mL/min/kg. The Cmax ([6]; plasma levels) was 10700 ng/mL, the MRT ([6]; plasma levels) was 2 h and the Tmax ([6]; plasma levels) was 1.7 h. It also gave a half-life ([6]; plasma levels) of 0.6 h, a Vd/F ([6]; plasma levels) of 6.7 L/kg and an AUC(0-inf) ([6]; 80 mg/kg, plasma levels) of 24000 ng·h/mL. The AUCinf [7] was 30400 ng·h/mL, the AUC(0-inf) ([7]; brain) was 30000 ng·h/mL and the Kp ([7]; brain) was 1.27. For the same compound, the CL/F [7] was 43.3 mL/min/kg, the Cmax [7] was 11400 ng/mL and the MRT [7] was 2.1 h. The Tmax [7] was 2.7 h, the half-life [7] was 0.5 h and the Vd/F [7] was 5.4 L/kg. For the same compound, the ED50 [8] was 39 mg/kg and the Ki [9] was 522 ± 26 nM.

In the case of `CC[C@@H](C)CCOC(=O)Nc1ccc(S(N)(=O)=O)cc1` [(R)-MSPC], the “MES-ED50 [95% CI]” value ([10]; rats dosed i.p.) is listed as 39 [31–44] mg/kg, the “MES-ED50 [95% CI]” value ([10]; rats dosed p.o.) is listed as 30 [22–37] mg/kg and the Ki [11] is listed as 810 ± 55 nM. The Ki [12] was 3.3 ± 0.2 nM, the Ki [13] was 170 ± 9 nM and the “Neurotoxicity-TD50 [95% CI]” value (rats [14]; rats dosed i.p.) was 134 [108–158] mg/kg. For the same compound, the “Protective Index (PI = TD50/ED50)” value (rats [14]; rats dosed i.p.) was 3.4 and the Ki [15] was 34.1 ± 2.5 nM.

In the case of `CC[C@H](C)OC(=O)Nc1ccc(S(N)(=O)=O)cc1` [(S)-MBPC], the Ki [1] is reported as 34.9 ± 1.4 nM, the “enantiostability (chiral inversion)” value [16] is reported as “no chiral inversion was observed” and the Ki [2] is reported as 71.8 ± 6.5 nM. The “times more effective than the (R)-enantiomer against hCA I” value ([2]; ratio of KI values) was 2.9 times, the TD50 [3] was greater than 200 mg/kg and the “Protective Index (PI = TD50/ED50)” value (rats [4]) was greater than 11. The Ki [5] was 53.3 ± 2.9 nM, the “times more effective than the (R)-enantiomer against hCA VII” value ([5]; ratio of KI values) was 3.7 times and the CL/F ([6]; plasma levels) was 33.3 mL/min/kg. The Cmax ([6]; plasma levels) was 12700 ng/mL, the MRT ([6]; plasma levels) was 2.7 h and the Tmax ([6]; plasma levels) was 1 h. It also gave a half-life ([6]; plasma levels) of 1.2 h, a Vd/F ([6]; plasma levels) of 5.7 L/kg and an AUC(0-inf) ([6]; 80 mg/kg, plasma levels) of 40000 ng·h/mL. It also gave an AUCinf ([6]; plasma levels, 80 mg/kg) of 39600 ng·h/mL, an AUCinf [7] of 51500 ng·h/mL and an AUC(0-inf) ([7]; brain) of 52000 ng·h/mL. It also gave a Kp ([7]; brain) of 1.32, a CL/F [7] of 26.7 mL/min/kg and a Cmax [7] of 15200 ng/mL. It also gave an MRT [7] of 4.2 h, a Tmax [7] of 1.66 h and a half-life [7] of 0.9 h. It also gave a Vd/F [7] of 5 L/kg, an ED50 [8] of 19 mg/kg and a Ki [9] of 249 ± 13 nM.

In the case of `CC[C@H](C)CCOC(=O)Nc1ccc(S(N)(=O)=O)cc1` [(S)-MSPC], the “MES-ED50 [95% CI]” value ([10]; rats dosed i.p.) is listed as 43 [33–52] mg/kg, the “MES-ED50 [95% CI]” value ([10]; rats dosed p.o.) is listed as 24 [17–29] mg/kg and the Ki [11] is listed as 593 ± 42 nM. For the same compound, the Ki [12] was 20.3 ± 1.4 nM, the Ki [13] was 744 ± 36 nM and the “Neurotoxicity-TD50 [95% CI]” value (rats [14]; rats dosed i.p.) was 149 [121–157] mg/kg. The “Protective Index (PI = TD50/ED50)” value (rats [14]; rats dosed i.p.) was 3.5 and the Ki [15] was 130 ± 8 nM.
